Results: paper PMC8507260, “A2E-induced inflammation and angiogenesis in RPE cells in vitro are modulated by PPAR-α, -β/δ, -γ, and RXR antagonists and by norbixin” (Aging (Albany NY), 2021)

How the values were obtained:
PPAR-α = biological target: T1, PPAR-α (Homo sapiens, UniProt Q07869); test: Competition binding to PPAR-α against [3H]GW7647 (Eurofins Cerep); details: competition with [3H]GW7647
T1 construct: Eurofins Cerep (contract laboratory that ran the assay)
T1 sequence (Q07869 1-468): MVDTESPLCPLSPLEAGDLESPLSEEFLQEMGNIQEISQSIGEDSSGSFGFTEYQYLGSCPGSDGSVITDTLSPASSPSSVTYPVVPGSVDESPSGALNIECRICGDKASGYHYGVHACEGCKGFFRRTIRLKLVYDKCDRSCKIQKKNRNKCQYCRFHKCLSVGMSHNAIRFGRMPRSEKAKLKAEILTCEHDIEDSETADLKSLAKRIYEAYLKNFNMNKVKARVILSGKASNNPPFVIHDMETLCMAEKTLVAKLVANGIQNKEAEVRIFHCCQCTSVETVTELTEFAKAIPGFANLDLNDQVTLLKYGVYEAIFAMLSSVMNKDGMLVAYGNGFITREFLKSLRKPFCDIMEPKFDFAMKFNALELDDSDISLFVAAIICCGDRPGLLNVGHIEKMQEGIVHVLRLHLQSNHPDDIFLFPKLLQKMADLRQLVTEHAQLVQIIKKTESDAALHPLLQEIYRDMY
Description: The binding and activity of norbixin on PPARs remains controversial, thus, firstly, we performed competition experiments in vitro between norbixin and [^3H] GW7647, an agonist of PPAR-α, and [^3H] rosiglitazone, an agonist of PPAR-γ. […] Secondly, we tested whether norbixin could induce the transactivation of PPAR-α, -β/δ or -γ in the context of RPE cells in vitro by co-transfecting porcine RPE cells with a plasmid expressing each of the full-length PPAR isoforms and a plasmid expressing luciferase under the control of the PPAR response element. […] Then, we wanted to determine if norbixin could modulate the transactivation of PPAR isoforms induced by specific agonists.
Binding studies of A2E and norbixin to RXR-α and PPAR-α and γ were performed in vitro by an external laboratory (Eurofins Cerep, Celle L’Evescault, France) through competition experiments between A2E or norbixin and [^3H]9-cis-retinoic acid as the natural ligand of RXR-α, [^3H]GW7647 an agonist of PPAR-α and [^3H]Rosiglitazone an agonist of PPAR-γ.

PPAR-β/δ = test: Transactivation of over-expressed PPAR-β/δ, luciferase reporter in porcine RPE cells; assay type: cell-based, pig; details: for transactivation of over-expressed PPAR-β/δ by the compound alone: vs DMSO control, A2E 20 μM, NBX increasing concentrations
Protocol: Then the effects of A2E on the endogenous PPAR transactivation in porcine RPE cells were investigated by means of a luciferase assay. […] The level of transactivation of PPAR-α, -β/δ, or -γ isoforms by A2E was determined by co-transfection of porcine RPE cells with a plasmid expressing each of the full-length PPAR isoforms and a plasmid expressing luciferase under the control of the PPAR response element. […] All usual chemicals, primers, and HX531 were from Sigma (St. Louis, MO, USA). Reagents for cell culture, transfection and quantitative RT-PCR were from Thermo Fisher Scientific (Waltham, MA, USA). RNA extraction NucleoSpin® RNA kit was from Macherey Nagel (Düren, Germany). ECL prime and PVDF membrane were from Amersham GE Healthcare (Buckinghamshire, UK). Primary antibodies against the following proteins were used: GAPDH (Santa Cruz Biotechnology, Inc, Dallas, TX, USA); pAKT, AKT, pERK and ERK (Cell Signaling, Danvers, MA, USA). Secondary antibodies were from Jackson ImmunoResearch (Cambridgeshire, UK). […] Cignal Pathway Reporter Assay Kits were from QIAGEN (Frederick, MD, USA). The Dual-Luciferase Reporter Assay System was purchased from Promega (Madison, WI, USA). pcDNA 3.1 (+)-PPARα and pcDNA 3.1 (+)-PPARβ/δ (pig sequence) were purchased from Genscript (Piscataway, NJ, USA). pCMV6-XL4-PPARγ (human sequence) was purchased from Origene (Rockville, MD, USA).
(§1) After one week in culture, cells were trypsinized and transferred to a 96-well plate at a density of 6 × 10^4 cells/cm^2 in DMEM2%FCS. The next day, cells were transfected using the Cignal Reporter Assay Kits for PPAR, RXR, AP-1 and NF-κB, according to the manufacturer’s specifications. To measure the specific activation of PPAR isoforms, cells were also co-transfected with PPAR-α, PPAR-β/δ or PPAR-γ expression vectors. Transfection was performed with Lipofectamine and Plus Reagent in serum-free medium. 3 h after the transfection, the medium was replaced and treatments with the molecules to assay were performed. Luciferase activity was measured the next day using the Dual-Luciferase Reporter Assay System. The measurements were performed with a luminometer (Infinite M1000 from Tecan, Mannedorf, Switzerland). Firefly: Renilla activity ratios were calculated for each condition and ratios from transcription factor-responsive reporter transfections were divided by ratios from negative control transfections to obtain relative luciferase unit, as described by the manufacturer. At least 3 independent transfections were performed in triplicate for each condition.

RXR = test: Endogenous RXR transactivation, luciferase reporter in porcine RPE cells; assay type: cell-based
Protocol: (§2) Pig eyes were obtained from a local slaughterhouse and transported to the laboratory in ice-cold Ringer solution. After removal of the anterior segment of the eye, the vitreous and neural retina was separated from the RPE and removed. The eyecup was washed twice with phosphate buffer saline (PBS), filled with trypsin (0.25% in PBS) and incubated at 37°C for 1.5 h. RPE cells were harvested by gently pipetting, centrifuged to remove trypsin and re-suspended in Dulbecco’s Modified Eagle Medium (DMEM) supplemented with 20% (v/v) foetal-calf serum (DMEM20%FCS) and 0.1% gentamycin. Cells were seeded into 60 mm diameter Petri dishes, cultured in an atmosphere of 5% CO2/95% air at 37°C, and supplied with fresh medium after 24 hours and 4 days in vitro. For experiments aimed at measuring mRNA or protein expression in RPE, cells were trypsinized after one week in culture and transferred to 24-well or 6-well plates at a density of 1.5 × 10^5 cells/cm^2 in DMEM2%FCS. Norbixin or agonists were added to the medium 24 h after seeding, and antagonists were added to the medium 24 h later. A2E treatment was performed during 19 h before cellular sample preparation. All the drugs used in these experiments were prepared as stock solutions in DMSO.
as §1

NF-κB = NF-κB transactivation, luciferase reporter in porcine RPE cells; assay type: cell-based; details: A2E 20 μM, T007907 10 μM
Protocol: as §2, §1

Row | Structure (SMILES) | IC50 (PPAR-α) | Kd (PPAR-α) | effect on over-expressed PPAR-β/δ transactivation induced by A2E (PPAR-β/δ; A2E 20 μM + NBX 20 μM) | inhibition of PPAR-β/δ transactivation induced by GW0742 (PPAR-β/δ; GW0742 at 1 nM, NBX 20 μM) | transactivation of over-expressed PPAR-β/δ by the compound alone (PPAR-β/δ) | inhibition of RXR transactivation induced by A2E (RXR; A2E 20 μM, NBX 20 μM, HX531 5 μM) | inhibition of RXR transactivation induced by HX630 (RXR; HX630 5 μM, NBX 20 μM) | transactivation of RXRs by the compound alone (RXR; HX630 5 μM, NBX 20 μM, vs DMSO control) | inhibition of NF-κB transactivation induced by A2E (NF-κB; NBX 20 μM, HX531 5 μM) | minimal concentration inducing transactivation of endogenous RXRs (RXR; dose-response, porcine RPE cells) | effect of the compound alone on NF-κB transactivation (NF-κB; vs DMSO control)
1 | CC(/C=C/C=C(C)/C=C/C(=O)O)=C\C=C\C=C(C)\C=C\C=C(C)\C=C\C(=O)O (stereo in doubt) [norbixin, 9’-cis-norbixin] | 16.5 µM | 15 µM | fully abolished | did not inhibit significantly | did not demonstrate any transactivation activity | 49% | did not inhibit | did not induce the transactivation | 73% | – | –
2 | CC(C=CC1=C(C)CCCC1(C)C)=CC=CC(C)=Cc1cc(C=CC=C(C)C=CC2=C(C)CCCC2(C)C)cc[n+]1CCO [A2E, N-retinylidene-N-retinylethanolamine] | 42.7 µM | 41 µM | – | – | induced the transactivation | – | – | – | – | 20 µM | induces the transactivation
